Several values for one entry are separate records, joined by “and”; a condition that tells them apart may be missing. Equal entries are not always repeated.
Assays:
Type in all cases: in vivo
[1] = test system: Black Ants (Ochetellus sp); assay: Ant repellency on half-treated formica (Example 4); settings: ants, 20 mg/m^2 on formica; for Percentage Dead, Average / Percentage Present, Treated Section, Average / Percentage Present, Untreated Section, Average: average of days 1, 2 and 3
Experimental: The effectiveness of compound 2 (example 1) as an insect repellent was determined using ants exposed to a formica surface partially treated/partially untreated with compound 2, and was directly compared to the repellency of the well known insect repellents Farnesol and Dihydrofarnesal.
The study was conducted in an air conditioned laboratory at a temperature of 22°±2° C. under a normal day/night cycle, using Black Ants (Ochetellus sp) of mixed sex and age. The study ws conducted over a 3 day period and the repellent effectiveness assessed 1, 2 and 3 days after ant introduction.
One half of a rectangle of formica 40 cm×30 cm was treated at 20 mg/m^2 with the test compounds. This was achieved by soaking a paper wipe (Rag On A Roll approximately 20 cm×20 cm) in a solution of the test compound in ethanol, squeezing out the excess liquid and wiping over the surface to give the required coverage. This was checked by weighing the cloth after application. The surface was allowed to dry. The other half was wiped with ethanol alone (untreated surface).
The treated formica rectangle was placed on the bench and a glass ring (diameter 20 cm) was placed on the rectangle. This had been treated with fluon to prevent ant escape.
A small plastic container 2 cm in diameter was placed on the formica, one on the treated surface and one on the untreated surface. The plastic container placed on the treated surface had repellent applied in the same way as the treated formica. The plastic container on the untreated surface was wiped with ethanol.
24 hours after treatment (1 day) 20 ants were added to the centre of the formica. No food and water was supplied for these ants. 2 hours after this the number of ants on the treated and untreated surfaces was counted.
The above was repeated 3 times to provide a total of 4 replicates.
The above was repeated at 2 days and 3 days. New ants were used at each time period.

[2] = test system: German cockroaches (Blatella Germanica); assay: Cockroach repellency in tray with half-treated vinyl, compared with DEET and N-methyl-neodecanamide (Example 3); settings: cockroaches, 20 mg/m^2 on vinyl
Experimental: The effectiveness of compound 2 (example 1) as an insect repellent was determined using German cockroaches exposed to a formica surface partially treated/partially un-treated, and was directly compared to the repellency of the well known insect repellents DEET (N,N-diethyl-meta-toluamide) and N-methyl-neodecanamide. The study was conducted in an air conditioned laboratory at a temperature of 22°±2° C. under a normal day/night cycle, using German cockroaches (Blatella Germanica) of mixed sex and age. The study was conducted over a 7 days period and the repellent effectiveness was assessed 1, 3, 5 and 7 days after cockroach introduction. Each tray used in the study consisted of a melamine square tray of sides 1.8m×1.8m and 20 cm high walls. The upper part of the wall was provided with electrical strip, which prevented cockroaches escaping. A square of vinyl 90 cm×180 cm was treated with the test compound at 20 mg/m^2. This was achieved by soaking a paper wipe (Rag on a Roll, ca. 20 cm×20 cm) in a solution of the test compound in ethanol, squeezing out the excess liquid and wiping over the surface to give the required coverage. This was checked by weighing the cloth after application. The surface was allowed to dry. The treated vinyl square was placed in one half of the tray. A similar untreated square was placed in the other half of the tray. This square was treated with ethanol alone. Two sheets of formica (30 cm×30 cm) were placed at one corner of each tray, one on the treated surface and one on the untreated surface. This acted as a cockroach harbourage. The formica sheet to be used in the treated section was treated at the same rate as the treated formica. The formica was placed on two 1 cm high bottle tops to allow cockroaches access under the formica. 50 German cockroaches were added (15 adults and 35 nymphs) to the middle of the tray. No food and water was supplied for these cockroaches. At 1, 2, 3 and 7 days after cockroach introduction the number of cockroaches under each harbourage was counted. After each count the harbourage position was change to avoid the possibility of habituation to one location, the harbourages were replaced and new cockroaches were added to replace any dead cockroaches. The above was repeated 3 times to provide a total of 4 replicates.

[3] = test system: Casemaking Clothes Moths (Tinea pellionella); assay: Adult clothes moth repellency on treated woolen cloth (Example 5); settings: fabric soaked in 20 g/L in ethanol, 2 days after moth introduction; for Moths Present, Treated Section, Total (%) / Moths Present, Untreated Section, Total (%): share of moths found in the two boxes; for The Number of Moths Present, Treated Section / The Number of Moths Present, Untreated Section: single replicates (n = 50); for The Number of Moths Present, Treated Section, Total / The Number of Moths Present, Untreated Section, Total: total of 4 replicates
Experimental: The effectiveness of compound 2 (example 1) to reduce the presence of cloth moths on woolen cloth was determined and was directly compared to the repellency of the well known moth repellents Citronellol and Farnesol.
The study was conducted in an air conditioned laboratory at a temperature of 22°±2° C. under a normal day/night cycle, using Casemaking Clothes Moths (Tinea pellionella) of mixed sex and age. The study is conducted over a 5 days period and the repellent effectiveness was assessed as follows:
Adults—2 days after insect introduction
A 10 cm×10 cm square of black woolen fabric free of bactericide) was soaked in a solution of the candidate repellent in ethanol at 20 g/L, squeezed and allowed to dry. The woollen square was placed in a small box (5 cm×10 cm×10 cm) which was open at one end to allow entry of adult clothes moth.
A similar square of fabric treated with ethanol (control) was placed in another box of the same size.
These two boxes were placed in an aquarium and 50 mixed sex adult moths were added. These were provided with food and water and left for 5 days.
At the end of 2 days the number of adult moths in each box was counted.
The above was repeated 3 times to provide 4 replicates.

SMILES	Percentage Dead ([1]; 1 day after treatment)	Percentage Present, Treated Section ([1]; 1 day after treatment)	Percentage Present, Untreated Section ([1]; 1 day after treatment)	Percentage Dead ([1]; 2 days after treatment)	Percentage Present, Treated Section ([1]; 2 days after treatment)	Percentage Present, Untreated Section ([1]; 2 days after treatment)	Percentage Dead ([1]; 3 days after treatment)	Percentage Present, Treated Section ([1]; 3 days after treatment)	Percentage Present, Untreated Section ([1]; 3 days after treatment)	Percentage Dead, Average [1]	Percentage Present, Untreated Section, Average [1]	Moths Present, Treated Section, Total (%) [3]	Moths Present, Untreated Section, Total (%) [3]	The Number of Moths Present, Treated Section [3]	The Number of Moths Present, Untreated Section [3]	The Number of Moths Present, Treated Section, Total [3]	The Number of Moths Present, Untreated Section, Total [3]	also measured
CC(C)=CCC/C(C)=C/CCC(C)CC=O (stereo not drawn) [Dihydrofarnesal, reference compound]	0%	20.0%	80.0%	0%	21.2%	78.8%	0%	12.5%	87.5%	0%	82.1%							Percentage Present, Treated Section, Average [1]: 17.9%; Percentage Present, Treated Section, Average ([1]; listed as Dihydrofarnesol): approximately 17%
CCN(CC)C(=O)c1cccc(C)c1 [DEET, N,N-diethyl-meta-toluamide, reference compound]																		Percentage Dead ([2]; 1 day after treatment): 0.5%; Percentage Present, Treated Section ([2]; 1 day after treatment): 3.0%; Percentage Present, Untreated Section ([2]; 1 day after treatment): 96.5%; Percentage Dead ([2]; 2 days after treatment): 1.5%; Percentage Present, Treated Section ([2]; 2 days after treatment): 2.5%; Percentage Present, Untreated Section ([2]; 2 days after treatment): 96.0%; Percentage Dead ([2]; 3 days after treatment): 0.5%; Percentage Present, Treated Section ([2]; 3 days after treatment): 27.5%; Percentage Present, Untreated Section ([2]; 3 days after treatment): 72.0%; Percentage Dead ([2]; 7 days after treatment): 1.0%; Percentage Present, Treated Section ([2]; 7 days after treatment): 55.0%; Percentage Present, Untreated Section ([2]; 7 days after treatment): 44.0%
CC(C)=CCCC(C)CCO (stereo not drawn) [Citronellol]												(23.9%)	(76.1%)	7 and 0 and 5 and 14	20 and 12 and 26 and 25	26	83	
CC(C)=CCCC(C)=CCCC(C)=CCO [Farnesol, 3,7,11-Trimethyl-2,6,10-dodecatrien-1-ol]	0%	20.0%	80.0%	0%	10.0%	90.0%	0%	20.0%	80.0%	0%	83.3%	(26.0%)	(74.0%)	9 (2×) and 4 and 5	18 and 19 (2×) and 21	27	77	

Source: patent US20040028714A1, “Composition having insect repellent characteristics” (priority 2000, published 2004)
